For series [1] the following is noted: counter-ions studied during the initial salt screening; cited from earlier work.
Series [2] in a line: Exposure of amorphous salts to humidity (saturated NaCl solution, 75% RH at room temperature) for stability assessment. The format is physicochemical. The settings on record: for behaviour on exposure to 75% RH: a week of exposure (repeat). An excerpt:
Although amorphous, salts that were produced earlier were exposed to Humidity through saturated NaCl solution (75% RH at room temperature) for stability assessment.
Other salts of SBT-020 that were made during the initial screening that were missing in Table 13 were exposed to 75% RH. The missing salts were Maleate, Salicylate, Tartarate (repeat), Succinate and Phosphate (repeat).

Series [3] is described as follows: Qualitative solubility in water. The format is physicochemical. The settings on record: at RT. An excerpt: No signs of acetic acid were observed.

Read-outs that look alike come from different tables or passages of the source. Non-standard residues stand in square brackets, D forms with d. Residues, ends and D or L forms follow the SMILES beside them.

The values below come from US11325943B2, “Crystalline salt forms of SBT-20” (priority 2017, dated 2022).

Turning to `O=S(=O)(O)c1ccccc1` [Benzene sulfonic acid], in series [1], the pKa1 was −2.8. Turning to `Br` [Hydrobromic acid], the pKa1 in series [1] is −8. For `O=C(O)CC(O)C(=O)O` (stereo not shown) [Malic acid], in series [1], the pKa1 is recorded as 3.4 and the pKa2 was 5.2. The term solubility denotes how much of the substance goes into solution per volume. As for `N=C(N)NCCC[C@@H](NC(=O)[C@@H](N)Cc1ccccc1)C(=O)N[C@@H](Cc1ccccc1)C(=O)N[C@@H](CCCCN)C(N)=O` [Tosylate] (H-F[dR]FK-NH2), the “physical stability upon humidity exposure” value in series [2] (saturated NaCl solution, 75% RH at room temperature, amorphous salts) is on record as “demonstrated physical stability upon humidity exposure”; in series [2] (saturated NaCl solution, 75% RH at room temperature, amorphous salts, listed as tosylate), “best stability under humidity exposure”. In series [3], this compound had a solubility of over 100 mg/mL. Turning to Phosphate, in series [2], the “physical stability upon humidity exposure” value is reported as “demonstrated physical stability upon humidity exposure” and the “behaviour on exposure to 75% RH” value is recorded as “became wet, though they did not deliquesce even after a week”.

For the compound Tartarate, in series [2], the “behaviour on exposure to 75% RH” value is recorded as “became wet, though they did not deliquesce even after a week”.
